In patent publication US6881741B2 (ViroChem Pharma Inc., priority 2001, dated 2005):

Each molecule was assayed against recombinant HCV NS5B (HCV RNA-dependent RNA polymerase) (Hepatitis C virus genotype 1b, UniProt P26663) (assay: biochemical). Conditions: HCV polymerase activity, list of compounds of Example 27; read-out: IC50 (polymerase activity).
Sequence of recombinant HCV NS5B (HCV RNA-dependent RNA polymerase) (P26663 2420-3010 limits assumed): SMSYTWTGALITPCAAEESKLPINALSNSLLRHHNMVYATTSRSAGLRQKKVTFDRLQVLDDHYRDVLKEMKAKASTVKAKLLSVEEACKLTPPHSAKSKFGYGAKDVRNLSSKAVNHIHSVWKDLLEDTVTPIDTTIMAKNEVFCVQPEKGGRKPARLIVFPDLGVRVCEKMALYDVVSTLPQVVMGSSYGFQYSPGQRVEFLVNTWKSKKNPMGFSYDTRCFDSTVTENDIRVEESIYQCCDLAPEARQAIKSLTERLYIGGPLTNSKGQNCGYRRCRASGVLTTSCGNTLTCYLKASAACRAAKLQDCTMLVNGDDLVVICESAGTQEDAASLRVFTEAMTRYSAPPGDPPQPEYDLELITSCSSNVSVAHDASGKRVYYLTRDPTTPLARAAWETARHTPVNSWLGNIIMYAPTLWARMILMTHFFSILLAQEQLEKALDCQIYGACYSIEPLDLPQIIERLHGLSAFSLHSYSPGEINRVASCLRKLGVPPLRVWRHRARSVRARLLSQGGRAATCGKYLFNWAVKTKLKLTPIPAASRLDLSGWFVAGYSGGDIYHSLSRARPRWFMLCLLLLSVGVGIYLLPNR
`CC(C)N(C(=O)c1cc2c(Cl)cc(Cl)cc2[nH]1)c1cc(-c2ccccc2)sc1C(=O)O` [Compound 521, 3-[(4,6-DICHLORO-1#H!-INDOLE-2- CARBONYL)-ISOPROPYL-AMINO]-5- PHENYL-THIOPHENE-2-CARBOXYLIC ACID] was tested, and the IC50 was less than 5 µM.
In the case of `CCC(=O)N(Cc1ccc(C(F)(F)F)cc1)c1cc(-c2ccccc2)sc1C(=O)O` [Compound 410, 5-PHENYL-3-[PROPIONYL-(4- TRIFLUOROMETHYL-BENZYL)-AMINO]- THIOPHENE-2-CARBOXYLIC ACID], the IC50 is reported as 5 to 20 µM.
In the case of `Cc1ccc(C(=O)N(c2cc(-c3cccc(C(F)(F)F)c3)sc2C(=O)O)C(C)C)c(OCc2ccccc2)c1` [Compound 406, 3-[(2-BENZLOXY-4-METHYL-BENZOYL)- ISOPROPYL-AMINO]-5-(3- TRIFLUOROMETHYL-PHENYL)- THIOPHENE-2-CARBOXYLIC ACID], the IC50 is reported as less than 5 µM.
With `CC(C)N(C(=O)c1ccc(Cl)cc1Cl)c1cc(-c2ccc3[nH]ccc3c2)sc1C(=O)O` [Compound 488, 3-[(2,4-DICHLORO-BENZOYL)- ISOPROPYL-AMINO]-5-(1H-INDOL-5-YL)- THIOPHENE-2-CARBOXYLIC ACID] the IC50 was less than 5 µM.
`CC(C)CC(=O)N(Cc1ccc(C(F)(F)F)cc1)c1cc(-c2ccccc2)sc1C(=O)O` [Compound 412, 3-[(3-METHYL-BUTYRYL)-(4- TRIFLUOROMETHYL-BENZYL)-AMINO]-5- PHENYL-THIOPHENE-2-CARBOXYLIC ACID] was tested, and the IC50 was 5 to 20 µM.
In the case of `C=CCN(C(=O)CCCC)c1cc(-c2ccccc2)sc1C(=O)O` [Compound 399, 3-(ALLYL-PENTANOYL-AMINO)-5- PHENYL-THIOPHENE-2-CARBOXYLIC ACID], the IC50 is reported as 5 to 20 µM.
Molecule `Cc1ccc(S(=O)(=O)Nc2cc(-c3ccccc3)sc2C(N)=O)c(C)c1` [Compound 568, 3-(2,4-DIMETHYL- BENZENESULFONYLAMINO)-5-PHENYL- THIOPHENE-2-CARBOXYLIC ACID AMIDE] has an IC50 of 5 to 20 µM.
With `O=C(O)c1sc(-c2ccccc2)cc1N(C(=O)c1ccc(Cl)cc1Cl)C1CCCCC1` [Compound 553, 3-[CYCLOHEXYL-(2,4-DICHLORO- BENZOYL)-AMINO]-5-PHENYL- THIOPHENE-2-CARBOXYLIC ACID] the IC50 was less than 5 µM.
With `CC1CCC(C(=O)N(c2cc(-c3ccccc3)sc2C(=O)O)C2COC(C)(C)OC2)CC1` (stereo not shown) [Compound 517, 3-[(2,2-DIMETHYL-[1,3]DIOXAN-5-YL)-(4- METHYL-CYCLOHEXANECARBONYL)- AMINO]-5-PHENYL-THIOPHENE-2- CARBOXYLIC ACID] the IC50 was less than 5 µM.
For `CC(CNC(=O)OC(C)(C)C)N(C(=O)c1ccc(Cl)cc1Cl)c1cc(-c2ccccc2)sc1C(=O)O` (stereo not shown) [Compound 545, 3-[(2-TERT-BUTOXYCARBONYLAMINO-1- METHYL-ETHYL)-(2,4-DICHLORO- BENZOYL)-AMINO]-5-PHENYL- THIOPHENE-2-CARBOXYLIC ACID], the IC50 was less than 5 µM.
Molecule `CCc1ccc(-c2cc(N(C(=O)c3ccc(C)cc3O)C(C)C)c(C(=O)O)s2)cc1` [Compound 501, 5-(4-ETHYL-PHENYL)-3-[(2-HYDROXY-4- METHYL-BENZOYL)-ISOPROPYL-AMINO]- THIOPHENE-2-CARBOXYLIC ACID] has an IC50 of less than 5 µM.
Work on `CCC(=O)N(Cc1ccc(C)cc1)c1cc(-c2ccccc2)sc1C(=O)O` [Compound 467, 3-[(4-METHYL-BENZYL)-PROPIONYL- AMINO]-5-PHENYL-THIOPHENE-2- CARBOXYLIC ACID] yielded an IC50 of 5 to 20 µM.

Same assay, conditions: related polymerase activity (Example 27 list); read-out: IC50
For `C=CCN(C(=O)Cc1ccc(Cl)c(Cl)c1)c1cc(-c2ccccc2)sc1C(=O)O` [Compound 350, 3-{ALLYL-[2-(3,4-DICHLORO-PHENYL)- ACETYL]-AMINO}-5-PHENYL-THIOPHENE- 2-CARBOXYLIC ACID], the IC50 was 5 to 20 µM.
`Cc1ccccc1S(=O)(=O)Nc1cc(-c2ccc(NS(C)(=O)=O)cc2)sc1C(=O)O` [Compound 369, 5-(4-METHANESULFONYLAMINO- PHENYL)-3- (TOLUENE-2-SULFONYLAMINO)- THIOPHENE- 2-CARBOXYLIC ACID] showed an IC50 of 5 to 20 µM.
Molecule `CC(C)(C)N(C(=O)c1ccc(Cl)cc1Cl)c1cc(-c2ccccc2)sc1C(=O)O` [Compound 327, 3-[#TERT!-BUTYL-(2,4-DICHLORO- BENZOYL)-AMINO]-5-PHENYL- THIOPHENE-2-CARBOXYLIC ACID] has an IC50 of less than 5 µM.
`Cc1ccccc1S(=O)(=O)Nc1cc(-c2cccc([N+](=O)[O-])c2)sc1C(=O)O` [Compound 63, 5-(3-NITRO-PHENYL)-3-(TOLUENE-2-SULFONYLAMINO)-THIOPHENE-2-CARBOXYLIC ACID] gave an IC50 of less than 5 µM.
Work on `Cc1cc(F)ccc1S(=O)(=O)Nc1cc(-c2ccccc2)sc1C(=O)O` [Compound 370, 3-(4-FLUORO-2-METHYL- BENZENESULFONYLAMINO)-5-PHENYL- THIOPHENE-2-CARBOXYLIC ACID] yielded an IC50 of 5 to 20 µM.
Work on `CN(C(=O)c1ccc(Cl)cc1Br)c1cc(-c2ccccc2)sc1C(=O)O` [Compound 284, 3-[(2-BROMO-4-CHLORO-BENZOYL)-METHYL-AMINO]-5-PHENYL-THIOPHENE-2-CARBOXYLIC ACID] yielded an IC50 of less than 5 µM.
Molecule `Cc1cc(N(C(=O)c2ccc(Cl)cc2Cl)C(C)C)c(C(=O)O)s1` [Compound 382, 3-[(2,4-DICHLORO-BENZOYL)- ISOPROPYL-AMINO]-5-METHYL- THIOPHENE-2-CARBOXYLIC ACID] has an IC50 of less than 5 µM.
For `Cc1ccccc1S(=O)(=O)Nc1cc(-c2cc(NS(=O)(=O)c3ccccc3C)c(C(=O)O)s2)sc1C(=O)O` [Compound 161, 4,4′-BIS-(TOLUENE-2-SULFONYLAMINO)-[2,2′]BITHIOPHENYL-5,5′-DICARBOXYLIC ACID], the IC50 was less than 5 µM.
With `O=C(Nc1cc(-c2ccccc2)sc1C(=O)O)c1ccc(Cl)cc1` [Compound 72, 3-(4-CHLORO-BENZOYLAMINO)-5-PHENYL-THIOPHENE-2-CARBOXYLIC ACID] the IC50 was 5 to 20 µM.
Molecule `Cc1ccccc1C(=O)Nc1cc(-c2ccccc2)sc1C(=O)O` [Compound 96, 3-(2-METHYL-BENZOYLAMINO)-5-PHENYL-THIOPHENE-2-CARBOXYLIC ACID] has an IC50 of 5 to 20 µM.
Work on `Cc1ccc(C(=O)N(c2cc(-c3ccccc3)sc2C(=O)O)C(C)C)cc1` [Compound 211, 3-[ISOPROPYL-(4-METHYL-BENZOYL)-AMINO]-5-PHENYL-THIOPHENE-2-CARBOXYLIC ACID] yielded an IC50 of less than 5 µM.
With `CC(=O)c1ccc(-c2cc(NS(=O)(=O)c3ccccc3C)c(C(=O)O)s2)s1` [Compound 229, 5′-ACETYL-4-(TOLUENE-2-SULFONYLAMINO)-[2,2′]BITHIOPHENYL-5-CARBOXYLIC ACID] the IC50 was less than 5 µM.
`Cc1ccc(S(=O)(=O)Nc2cc(-c3ccc(C(=O)O)cc3)sc2C(=O)O)c(C)c1` [Compound 332, 5-(4-CARBOXY-PHENYL)-3-(2,4-DIMETHYL- BENZENESULFONYLAMINO)- THIOPHENE-2- CARBOXYLIC ACID] showed an IC50 of less than 5 µM.
`CC(=O)c1ccc(-c2cc(N(C(=O)c3ccc(Cl)cc3Cl)C(C)C)c(C(=O)O)s2)cc1` [Compound 355, 5-(4-ACETYL-PHENYL)-3-[)2,4-DICHLORO- BENZOYL)-ISOPROPYL-AMINO]- THIOPHENE-2-CARBOXYLIC ACID] showed an IC50 of less than 5 µM.
`O=C(O)c1sc(-c2ccccc2)cc1NS(=O)(=O)c1cc(F)ccc1F` [Compound 53, 3-(2,5-DIFLUORO-BENZENESULFONYLAMINO)-5-PHENYL-THIOPHENE-2-CARBOXYLIC ACID] was tested, and the IC50 was less than 5 µM.
Work on `Cc1ccc(S(=O)(=O)Nc2cc(-c3ccc(C(N)=O)cc3)sc2C(=O)O)cc1` [Compound 259, 5-(4-CARBAMOYL-PHENYL)-3-(TOLUENE-4-SULFONYLAMINO)-THIOPHENE-2-CARBOXYLIC ACID] yielded an IC50 of less than 5 µM.
Work on `O=C(O)c1sc(-c2ccccc2)cc1NC(=O)N1CCc2ccccc2C1` [Compound 180, 3-[(3,4-DIHYDRO-1H-ISOQUINOLINE-2-CARBONYL)-AMINO]-5-PHENYL-THIOPHENE-2-CARBOXYLIC ACID] yielded an IC50 of 5 to 20 µM.
`Cc1ccccc1S(=O)(=O)Nc1cc(-c2ccc(S(C)(=O)=O)cc2)sc1C(=O)O` [Compound 89, 5-(4-METHANESULFONYL-PHENYL)-3-(TOLUENE-2-SULFONYLAMINO)-THIOPHENE-2-CARBOXYLIC ACID] was tested, and the IC50 was less than 5 µM.
In the case of `CCCC(=O)N(C)c1cc(-c2ccccc2)sc1C(=O)O` [Compound 385, 3-(BUTYRYL-METHYL-AMINO)-5-PHENYL- THIOPHENE-2-CARBOXYLIC ACID], the IC50 is reported as 5 to 20 µM.
In the case of `O=C(O)c1cc(S(=O)(=O)Nc2cc(-c3ccccc3)sc2C(=O)O)c(F)cc1Cl` [Compound 221, 3-(5-CARBOXY-4-CHLORO-2-FLUORO-BENZENESULFONYLAMINO)-5-PHENYL-THIOPHENE-2-CARBOXYLIC ACID], the IC50 is reported as greater than 20 µM.
For `O=C(O)c1sc(-c2ccccc2)cc1NC(=O)N1CCN(c2ccc([N+](=O)[O-])cc2)CC1` [Compound 114, 3-{[4-(4-NITRO-PHENYL)-PIPERAZINE-1-CARBONYL]-AMINO}-5-PHENYL-THIOPHENE-2-CARBOXYLIC ACID], the IC50 was less than 5 µM.
With `N#Cc1ccccc1S(=O)(=O)Nc1cc(-c2ccccc2)sc1C(=O)O` [Compound 54, 3-(2-CYANO-BENZENESULFONYLAMINO)-5-PHENYL-THIOPHENE-2-CARBOXYLIC ACID] the IC50 was less than 5 µM.
In the case of `Cc1ccc(C)c(S(=O)(=O)Nc2cc(-c3ccc(F)cc3)sc2C(=O)O)c1` [Compound 107, 3-(2,5-DIMETHYL-BENZENESULFONYLAMINO)-5-(4-FLUORO-PHENYL)-THIOPHENE-2-CARBOXYLIC ACID], the IC50 is reported as less than 5 µM.
With `Cc1ccc(C(=O)N(C)c2cc(-c3ccc(F)cc3)sc2C(=O)O)cc1` [Compound 197, 5-(4-FLUORO-PHENYL)-3-[METHYL-(4-METHYL-BENZOYL)-AMINO]-THIOPHENE-2-CARBOXYLIC ACID] the IC50 was less than 5 µM.
Work on `Cc1ccccc1S(=O)(=O)Nc1cc(-c2cc3ccccc3o2)sc1C(=O)O` [Compound 127, 5-BENZOFURAN-2-YL-3-(TOLUENE-2-SULFONYLAMINO)-THIOPHENE-2-CARBOXYLIC ACID] yielded an IC50 of less than 5 µM.
With `NC(=O)c1ccc(-c2cc(NS(=O)(=O)c3ccc(Cl)cc3)c(C(=O)O)s2)cc1` [Compound 265, 5-(4-CARBAMOYL-PHENYL)-3-(4-CHLORO-BENZENESULFONYLAMINO)-THIOPHENE-2-CARBOXYLIC ACID] the IC50 was less than 5 µM.
`COc1ccc(-c2cc(N(C)C(=O)c3ccc(C)cc3)c(C(=O)O)s2)cc1` [Compound 198, 5-(4-METHOXY-PHENYL)-3-[METHYL-(4-METHYL-BENZOYL)-AMINO]-THIOPHENE-2-CARBOXYLIC ACID] showed an IC50 of 5 to 20 µM.
In the case of `O=C(O)c1sc(-c2ccccc2)cc1NS(=O)(=O)c1ccccc1` [Compound 17, 3-BENZENESULFONYLAMINO-5-PHENYL-THIOPHENE-2-CARBOXYLIC ACID], the IC50 is reported as 5 to 20 µM.
